A word on the EC50: it is the concentration at which the effect is half-maximal.

Our source for the EC50 values is patent US20120070411A1, “SUBSTITUTED NUCLEOTIDE ANALOGS” (Alios BioPharma, Inc., priority 2010, published 2012).

Read-outs that look alike come from different tables or passages of the source.

This experiment deals with Huh-7 cells containing the self-replicating, subgenomic HCV replicon. Put plainly: HCV replicon assay (luciferase reporter, 72 h). To be noted: Hepatitis C virus, read-out: HCV Replicon Activity (EC50). Format: cell-based. The procedure:
Huh-7 cells containing the self-replicating, subgenomic HCV replicon with a stable luciferase (LUC) reporter were cultured in Dulbecco's modified Eagle's medium (DMEM) containing 2 mM L-glutamine and supplemented with 10% heat-inactivated fetal bovine serum (FBS), 1% penicillin-streptomyocin, 1% nonessential amino acids, and 0.5 mg/ml G418.
On the first day, 5,000 HCV replicon cells were plated per well in a 96-well plate. On the following day, test compounds were solubilized in 100% DMSO to 100× the desired final testing concentration. Each compound was then serially diluted (1:3) up to 9 different concentrations. Compounds in 100% DMSO are reduced to 10% DMSO by diluting 1:10 in cell culture media. The compounds were diluted to 10% DMSO with cell culture media, which were used to dose the HCV replicon cells in 96-well format. The final DMSO concentration was 1%. The HCV replicon cells were incubated at 37° C. for 72 hours. At 72 hours, cells were processed when the cells are still subconfluent. Compounds that reduce the LUC signal are determined by Bright-Glo Luciferase Assay (Promega, Madison, Wis.). % Inhibition was determined for each compound concentration in relation to the control cells (untreated HCV replicon) to calculate the EC50.
Background: A replicon is a self-replicating genome or part of one, used to study replication in cells.

Where [1] appears, read: Table 9, Huh-7 HCV replicon cells, luciferase, 72 hours.

In the case of `COC(=O)[C@H](C)NP(=O)(Oc1ccccc1)O[C@H](C)[C@H]1O[C@@H](n2cnc3c(N)ncnc32)[C@H](O)[C@@H]1O` (stereo partly shown), for the setting “Huh-7, 72 h”, the concentration for a half-maximal effect (EC50) is less than 30 µM. On the same count and under the same terms, the figure for `COC(=O)[C@H](C)NP(=O)(Oc1ccccc1)O[C@@H](C)[C@H]1O[C@@H](n2cnc3c(N)ncnc32)[C@](C)(O)[C@@H]1O` (stereo partly shown) is less than 1000 µM; for `CCOC(=O)[C@H](C)NP(=O)(Oc1ccccc1)O[C@@H](C)[C@H]1O[C@@H](n2cnc3c(N)ncnc32)[C@H](O)[C@@H]1O` (stereo partly shown) it is less than 30 µM. In the case of `CC(O)[C@H]1O[C@@H](n2ccc(N)nc2=O)[C@@H](F)[C@@H]1O` (stereo partly shown), the half-maximal effective concentration (EC50) under setting [1] is 5 to 30 µM. On the same count and under the same terms, the figure for `C[C@@H](O)[C@H]1O[C@@H](n2ccc(N)nc2=O)C(F)(F)[C@@H]1O` is less than 5 µM; for `C[C@@H](O)[C@H]1O[C@@H](n2cnc3c(N)ncnc32)[C@](C)(O)[C@@H]1O` it is 5 to 30 µM. Consider `C[C@H](O)[C@H]1O[C@@H](n2ccc(N)nc2=O)[C@@H](O)[C@@H]1O`, for which the concentration for a half-maximal effect (EC50) under setting [1] is 30 to 200 µM.

Regarding `CC(O)[C@H]1O[C@@H](n2cnc3c(=O)[nH]c(N)nc32)[C@H](O)[C@@H]1O` (stereo partly shown), the EC50 under setting [1] was in the range of 30 to 200 µM. Still for that read-out and setting: the result for `CC(OC(=O)c1ccccc1)[C@H]1O[C@@H](n2ccc(=O)[nH]c2=O)[C@](C)(OC(=O)c2ccccc2)[C@@H]1OC(=O)c1ccccc1` (stereo partly shown) reads 5 to 30 µM. On the same count and under the same terms, the result for `C[C@H](O)[C@H]1O[C@@H](n2ccc(N)nc2=O)C(F)(F)[C@@H]1O` reads less than 5 µM. As for `COC(=O)[C@H](C)N[P@@](=O)(Oc1ccccc1)O[C@@H](C)[C@H]1O[C@@H](n2cnc3c(N)ncnc32)[C@H](O)[C@@H]1O`, the EC50 (Huh-7, 72 h) was less than 5 µM.

On to `C[C@H](O)[C@H]1O[C@@H](n2ccc(N)nc2=O)[C@H](F)[C@@H]1O`, for which, under setting [1], the 50% effective concentration (EC50) fell in the range of 5 to 30 µM.

`CC(=O)Nc1ccn([C@@H]2O[C@H]([C@H](C)OC(C)=O)[C@@H](OC(C)=O)C2(F)F)c(=O)n1`: the concentration for a half-maximal effect (EC50) under setting [1] is less than 5 µM. As for `CCC(=O)O[C@@H](C)[C@H]1O[C@@H](n2ccc(N)nc2=O)C(F)(F)[C@@H]1O`, under setting [1], the 50% effective concentration (EC50) was less than 5 µM.

As to `CCC(=O)O[C@@H](C)[C@H]1O[C@@H](n2ccc(N)nc2=O)C(F)(F)[C@@H]1OC(=O)CC`, the EC50 under setting [1] was less than 5 µM.

On to `CC(=O)O[C@@H](C)[C@H]1O[C@@H](n2ccc(N)nc2=O)C(F)(F)[C@@H]1O`, for which, under setting [1], the 50% effective concentration (EC50) is less than 5 µM. On to `CC(=O)O[C@@H](C)[C@H]1O[C@@H](n2ccc(N)nc2=O)C(F)(F)[C@@H]1OC(C)=O`, for which, under setting [1], the half-maximal effective concentration (EC50) was less than 5 µM. Take `COC(=O)[C@H](C)N[P@](=O)(Oc1ccccc1)O[C@@H](C)[C@H]1O[C@@H](n2cnc3c(N)ncnc32)[C@H](O)[C@@H]1O`: under “Huh-7, 72 h”, the concentration giving a half-maximal response (EC50) is less than 5 µM. For `C[C@@H](O)[C@H]1O[C@@H](n2ccc(N)nc2=O)[C@@H](O)[C@@H]1O`, the half-maximal effective concentration (EC50) under setting [1] is less than 5 µM. As to `COC(=O)[C@H](C)NP(=O)(Oc1ccccc1)O[C@@H](C)[C@H]1O[C@@H](n2ccc(N)nc2=O)C(F)(F)[C@@H]1O` (mixture of isomers) [C5, 2′-Deoxy-2′,2′-difluoro-5′(S)—C-methylcytidine 5′-[phenyl(methoxy-L-alaninyl)]phosphate], the EC50 (Huh-7, 72 h) is less than 1 µM. Take `COC(=O)[C@H](C)NP(=O)(Oc1ccccc1)OC(C)[C@H]1O[C@@H](n2ccc(N)nc2=O)[C@@H](F)[C@@H]1O` (mixture of isomers) [C9, 2′-deoxy-2′-C-β-fluoro-5′(R/S)—C-methylcytidine-5′-[phenyl-(methoxy-L-alaninyl)]phosphate]: for the setting “Huh-7, 72 h”, the EC50 was less than 100 µM.

With `CC(C)OC(=O)[C@H](C)NP(=O)(Oc1cccc2ccccc12)OC(C)[C@H]1O[C@@H](n2ccc(N)nc2=O)[C@@H](C)[C@@H]1O` (mixture of isomers) [C10, 2′-deoxy-2′-C-β-methyl-5′(R/S)—C-methylcytidine 5′-[1-naphthyl (isopropoxy-L-alaninyl)]phosphate], the concentration for a half-maximal effect (EC50) (Huh-7, 72 h) is less than 30 µM.

Take `COC(=O)C(C)NP(=O)(Oc1ccccc1)OC(C)[C@H]1O[C@@H](n2ccc(=O)[nH]c2=O)C(C)C1O` (mixture of isomers) [D7]: the EC50 (Huh-7, 72 h) was less than 30 µM. The same measure, in the same setting: the result for `C[C@H](NP(=O)(Oc1ccc(F)cc1)O[C@@H](C)[C@H]1O[C@@H](n2cnc3c(N)ncnc32)[C@H](O)[C@@H]1O)C(=O)OC1CCCCC1` (stereo in doubt) [A31] reads less than 1 µM. The same measure, in the same setting: the result for `C[C@H](NP(=O)(Oc1cccc2ncccc12)O[C@@H](C)[C@H]1O[C@@H](n2cnc3c(N)ncnc32)[C@H](O)[C@@H]1O)C(=O)OC1CCCCC1` (stereo in doubt) [A35] reads less than 30 µM. Still for that read-out and setting: the result for `CC(C)OC(=O)[C@H](C)N[P@](=O)(Oc1cccc2ccccc12)O[C@@H](C)[C@H]1O[C@@H](n2cnc3c(=O)[nH]cnc32)[C@H](O)[C@@H]1O` (stereo in doubt) [B5, 5′(S)—C-methylinosine 5′-[1-naphthyl(isopropoxy-L-alaninyl)]phosphate] reads less than 100 µM. On to `COC(=O)C(C)NP(=O)(Oc1ccccc1)OC(C)[C@H]1O[C@@H](n2ccc(=O)[nH]c2=O)C(F)(F)C1O` (stereo in doubt) [D4, 2′-Deoxy-2′,2′-difluoro-5′(S)—C-methyluridine 5′-[phenyl(methoxy-L-alaninyl)]phosphate], for which the EC50 (Huh-7, 72 h) is less than 30 µM.

With `C[C@H](NP(=O)(Oc1cccc2ccccc12)O[C@@H](C)[C@H]1O[C@@H](n2cnc3c(N)ncnc32)[C@H](O)[C@@H]1O)C(=O)OC1CCCCC1` (stereo partly drawn) [A1, 5′(S)—C-methyladenosine 5′-[1-naphthyl(cyclohexoxy-L-alaninyl)]phosphate], the EC50 (Huh-7, 72 h) is less than 1 µM. The same measure, in the same setting: the result for `C[C@H](NP(=O)(Oc1cccc2ccccc12)O[C@@H](C)[C@H]1O[C@@H](n2cnc3c(N)ncnc32)[C@H](O)[C@@H]1O)C(=O)OCC(C)(C)C` (stereo partly drawn) [A2, 5′(S)—C-methyladenosine 5′-[1-naphthyl(neopentoxy-L-alaninyl)]phosphate] reads less than 1 µM; that for `C[C@H](NP(=O)(Oc1cccc2ccccc12)O[C@@H](C)[C@H]1O[C@@H](n2cnc3c(N)ncnc32)[C@@H]2OC(=O)O[C@@H]21)C(=O)OC1CCCCC1` (stereo partly drawn) [A3, 2′,3′-O-carbonyl-5′(S)—C-methyladenosine 5′-[1-naphthyl(cyclohexoxy-L-alaninyl)]phosphate], less than 1 µM.

As to `C[C@H](NP(=O)(Oc1cccc2ccccc12)O[C@@H](C)[C@H]1O[C@@H](n2cnc3c(N)ncnc32)[C@@H]2OC(=O)O[C@@H]21)C(=O)OCC(C)(C)C` (stereo partly drawn) [A4, 2′,3′-O-carbonyl-5′(S)—C-methyladenosine 5′-[1-naphthyl(neopentoxy-L-alaninyl)]phosphate], the EC50 (Huh-7, 72 h) is less than 1 µM.

As for `COC(=O)Nc1ncnc2c1ncn2[C@@H]1O[C@H]([C@H](C)OP(=O)(N[C@@H](C)C(=O)OC2CCCCC2)Oc2cccc3ccccc23)[C@H]2OC(=O)O[C@H]21` (stereo partly drawn) [A5, 2′,3′-O-carbonyl-N6-methoxycarbonyl-5′(S)—C-methyladenosine 5′-[1-naphthyl(cyclohexoxy-L-alaninyl)]phosphate], under “Huh-7, 72 h”, the half-maximal effective concentration (EC50) was less than 30 µM. For the compound `COC(=O)Nc1ncnc2c1ncn2[C@@H]1O[C@H]([C@H](C)OP(=O)(N[C@@H](C)C(=O)OC2CCCCC2)Oc2cccc3ccccc23)[C@@H](O)[C@H]1O` (stereo partly drawn) [A6, N6-methoxycarbonyl-5′(S)—C-methyladenosine 5′-[1-naphthyl(cyclohexoxy-L-alaninyl)]phosphate], the concentration giving a half-maximal response (EC50) (Huh-7, 72 h) is less than 30 µM. Same read-out and setting: the figure for `COC(=O)Nc1ncnc2c1ncn2[C@@H]1O[C@H]([C@H](C)OP(=O)(N[C@@H](C)C(=O)OCC(C)(C)C)Oc2cccc3ccccc23)[C@H]2OC(=O)O[C@H]21` (stereo partly drawn) [A7, 2′,3′-O-carbonyl-N6-methoxycarbonyl-5′(S)—C-methyladenosine 5′-[1-naphthyl(neopentoxy-L-alaninyl)]phosphate] is less than 30 µM. Still for that read-out and setting: the result for `CC(C)OC(=O)[C@H](C)NP(=O)(Oc1ccccc1)O[C@@H](C)[C@H]1O[C@@H](n2cnc3c(N)ncnc32)[C@H](O)[C@@H]1O` (stereo partly drawn) [A8, 5′(S)—C-methyladenosine 5′-[phenyl(isopropoxy-L-alaninyl)]phosphate] reads less than 1 µM. The same measure, in the same setting: the result for `CC(C)OC(=O)[C@H](C)NP(=O)(Oc1ccccc1)O[C@@H](C)[C@H]1O[C@@H](n2cnc3c(N)ncnc32)[C@@H]2OC(=O)O[C@@H]21` (stereo partly drawn) [A9, 2′,3′-carbonyl-5′(S)—C-methyladenosine 5′-[phenyl(isopropoxy-L-alaninyl)]phosphate] reads less than 1 µM; that for `C[C@H](NP(=O)(Oc1ccccc1)O[C@@H](C)[C@H]1O[C@@H](n2cnc3c(N)ncnc32)[C@H](O)[C@@H]1O)C(=O)OC1CCCCC1` (stereo partly drawn) [A10, 5′(S)—C-methyladenosine 5′-[phenyl(cyclohexoxy-L-alaninyl)]phosphate], less than 1 µM; that for `C[C@H](N[P@@](=O)(Oc1ccccc1)O[C@@H](C)[C@H]1O[C@@H](n2cnc3c(N)ncnc32)[C@H](O)[C@@H]1O)C(=O)OC1CCCCC1` [A10a, 5′(S)—C-methyladenosine 5′(S)-[phenyl(cyclohexoxy-L-alaninyl)]phosphate], less than 1 µM. Take `C[C@H](N[P@](=O)(Oc1ccccc1)O[C@@H](C)[C@H]1O[C@@H](n2cnc3c(N)ncnc32)[C@H](O)[C@@H]1O)C(=O)OC1CCCCC1` [A10b, 5′(S)—C-methyladenosine 5′(R)-[phenyl(cyclohexoxy-L-alaninyl)]phosphate]: the concentration for a half-maximal effect (EC50) (Huh-7, 72 h) was less than 1 µM.

On to `C[C@H](NP(=O)(Oc1ccccc1)O[C@@H](C)[C@H]1O[C@@H](n2cnc3c(N)ncnc32)[C@H](O)[C@@H]1O)C(=O)OCC(C)(C)C` (stereo partly drawn) [A11, 5′(S)—C-methyladenosine 5′-[phenyl(neopentoxy-L-alaninyl)]phosphate], for which the 50% effective concentration (EC50) (Huh-7, 72 h) is less than 1 µM.
